Source: patent publication US9139546B2, “Tri-aryl/heteroaromatic cannabinoids and use thereof” (priority 2007, dated 2015)
Read-outs that look alike come from different tables or passages of the source.

Key:
[1] = tested on: BxPC-3 pancreatic cancer cells; assay: Anti-cancer activity, WST-8 cell viability, BxPC-3; assay type: cell-based; conditions: Homo sapiens, BXPC-3; cell death at 18 hours, WST-8; n.a. = no activity; read-out: BxPC-3 pancreatic EC50
Experimental: (§1) A representative group of compounds (shown below) was tested for anti-cancer activity against human lung (DMS-135 and H69AR), prostate (DU-145), colorectal (HCT-15), and pancreatic (BxPC-3) cancer cell lines using the methodology described below, providing results shown in Table 3.
(§2) Human cancer cells DU-145, DMS-135, H69AR, HCT-15, and BxPC-3 (American Type Culture Collection, ATCC) were cultured in supplemented media according to the recommendations of the supplier. Cells lines were plated in 96-well flat-bottom plates at 70% confluency in a 100 μl total volume of supplemented media as indicated, and incubated overnight at 37° C. to allow for adherence. The cultures were inoculated with escalating amounts of drug and cell death was analyzed at 18 hours, using the BioTek Synergy 2 Multidetection Microplate Reader. The percentage of viable cells present in the culture at each time point was calculated by comparing the absorbance value at 450 nm from the WST-8 assay (Pojindo Molecular Technologies) for each condition with untreated control cells.

human CB1 receptor = human CB1 receptor (Homo sapiens (Human), UniProt P21554); assay: Receptor binding assay, CB1 ([3H]CP 55,940 displacement); conditions: as repeated in the anti-inflammatory table; read-out: CB-1 Ki
Experimental: (§3) The assays were carried out in 96 well plates obtained from Millipore, Inc. fitted with glass fiber filters (hydrophilic, GFC filters) having a pore size of 1.2μ. The filters were soaked with 0.05% polyethyleneimine solution and washed 5× with deionized water prior to carrying out the assays. The filtrations were carried out on a 96 well vacuum manifold (Millipore Inc.), the filters punched out with a pipette tip directly into scintillation vials at the end of the experiment and vials filled with 5 ml scintillation cocktail Ecolite (+) (Fisher Scientific). Counting was carried out on a Beckmann Scintillation Counter model LS6500. Drug solutions were prepared in DMSO and the radioligand was dissolved in ethanol.
(§4) 50 mM TRIS-HCl, 5 mM MgCl2, 2.5 mM EDTA, 0.5 mg/ml fatty acid free bovine serum albumin, pH 7.4.
(§5) The membranes were filtered and the filters washed 7× with 0.2 ml ice-cold incubation buffer and allowed to air dry under vacuum.
(§6) Final data are presented as Ki±S.E.M. of n≧3 experiments.

NF-κB = NF-κB SEAP reporter assay in TNF-α treated A549 cells; assay type: cell-based; conditions: Homo sapiens, read-out: NF-κB Reduction; for inhibition at 0.01 µM: 10 nM compound
Experimental: (§7) Human lung adenocarcinoma cell line A549 (alveolar type II epithelial-like) cells (ATCC, Manassas, Va.) were maintained in growth media consisting of DMEM supplemented with 10% heat-inactivated fetal calf serum, 2 mM L-glutamine, 100 U/ml penicillin, and 100 μg/ml streptomycin.
The plasmid pNF-κB-SEAP-NPT was kindly provided by Dr. Y. S. Kim of the Seoul National University. This plasmid contains a secreted alkaline phosphatase (SEAP) reporter gene coupled with the κB response element. Upon activation, NF-κB translocates to the nucleus and binds to the κB response element causing transcriptional activation. This activation drives production of the SEAP reporter, which is secreted into the cell culture supernatant where it can be measured. The neomycin phosphotransferase (NPT) region of the plasmid provides resistance to the antibiotic G-418.
A549 cells were stably transfected with pNF-κB-SEAP-NPT using GeneJammer Transfection Reagent (Stratagene, La Jolla, Calif.) per manufacturer's protocol. G-418 (500 μg/ml) was added 24 hrs after transfection to select for stable transfection of NF-κB. Resistant colonies were selected and maintained in growth media supplemented with 500 μg/ml G-418.
Previous experiments have shown A549 cells respond to the pro-inflammatory cytokine TNF-α by activation of the pro-inflammatory transcription factor, NF-κB. This effect is dose dependent with the maximum effect seen at 10 ng/mL TNF-α. Compounds with anti-inflammatory activity can be used to inhibit this activation of NF-κB.
One day prior to treatment, transfected cells were seeded in 24 well culture plates at 6×10^4 cells/well in 1 mL of DMEM containing 1% FCS. On the day of treatment, media was aspirated. Following PBS wash, 1 mL of media containing 1% FCS, 10 ng/mL TNF-α, and varying concentrations of test compounds was added. Cell culture supernatant was collected at 18 hours. SEAP production was measured in 50 μL of supernatant using the Great EscAPe™ chemiluminescence kit (Clontech, Mountain View, Calif.). Briefly, samples were incubated at 65° C. for 30 minutes to inactivate endogenous alkaline phosphate. Following a 5-minute equilibration with assay buffer, chemiluminescent substrate and enhancer was added. Chemiluminescence was measured after 10 minutes. Higher levels of chemiluminescence result from increased SEAP production and correspond to NF-κB activity. Compounds capable of inhibiting NF-κB activation due to TNF-α are determined by a reduction in chemiluminescence values when cells are treated with TNF-α and test compound versus cells treated with TNF-α alone.

[2] = tested on: DMS-135 lung cancer cells; assay: Anti-cancer activity, WST-8 cell viability, DMS-135; assay type: cell-based; conditions: Homo sapiens
Experimental: as §1, §2

[3] = tested on: DU-145 prostate cancer cells; assay: Anti-cancer activity, WST-8 cell viability, DU-145; assay type: cell-based; conditions: Homo sapiens
Experimental: as §1, §2

IL-6 = IL-6 level in supernatant of TNF-α treated A549 cells (multiplex bead immunoassay); assay type: cell-based, human; conditions: A549, 10 ng/mL TNF-α, 18 hours
Experimental: as §7
(§8) One day prior to treatment, A549 cells were seeded in 24 well culture plates at 6×10^4 cells/well in 1 mL of DMEM containing 1% FCS. On the day of treatment, media was aspirated. Following PBS wash, 1 mL of media containing 1% FCS, 10 ng/mL TNF-α, and varying concentrations of test compounds was added. Samples were collected at 18 hours and immediately transferred to −80° C. until the day of analysis.
(§9) Levels of IL-6 and CXCL-8 were measured in cell culture supernatant using the Multiplex Bead Immunoassay Kit (Biosource, Camarillo, Calif.) paired with the Luminex® 200™ System. Standard solutions were prepared by serial dilution in a 50% media, 50% buffer solution so that they were in the same matrix as the samples. Standards and samples were mixed with a solution containing beads coated with capture antibodies specific for IL-6 and CXCL-8. Each capture antibody is bound to a specific bead population with a known internal fluorescence. The Luminex system can differentiate between internal fluorescence of beads allowing detection of multiple analytes in the same well. Following overnight incubation to allow complexation of protein with capture antibodies, wells were washed and beads resuspended in assay buffer. Biotinylated reporter antibodies specific for IL-6 and CXCL-8 were added and incubated for 1.5 hours. Unbound antibodies were removed by washing, and Streptavidin-Phycoerythrin (PE) was added and incubated 30 minutes. Streptavidin binds to biotin on the reporter antibodies. Unbound reagents were removed and samples were analyzed by the Luminex system. This system utilizes a flow cytometry system and lasers capable of exciting the internal dyes of the beads and PE. The machine separates signals from beads with different internal fluorescence and measures fluorescence intensity from PE bound to these beads through protein-antibody interactions. This fluorescence intensity is reported as the median of 100 beads per cytokine in each well. Concentrations were interpolated by fitting fluorescence intensity from unknowns to the standard curves.
(§10) Cells treated with the pro-inflammatory cytokine TNF-α increase production of IL-6 and CXCL-8 when compared to cells not treated with TNF-α. Cells treated with anti-inflammatory compounds block the inflammatory effect of TNF-α and produce IL-6 and CXCL-8 levels similar to cells that are not treated with TNF-α.

[4] = tested on: HCT-15 colorectal cancer cells; assay: Anti-cancer activity, WST-8 cell viability, HCT-15; assay type: cell-based; conditions: Homo sapiens
Experimental: as §1, §2

human CB2 receptor = human CB2 receptor (Homo sapiens (Human), UniProt P34972); assay: Receptor binding assay, CB2 ([3H]CP 55,940 displacement); conditions: for Ki: as repeated in the anti-inflammatory table, read-out: CB-2 Ki; for CB1/CB2: ratio of Ki CB-1 to Ki CB-2
Experimental: as §3, §4, §5, §6

CXCL-8 = CXCL-8 level in supernatant of TNF-α treated A549 cells (multiplex bead immunoassay); assay type: cell-based, human; conditions: A549, 10 ng/mL TNF-α, 18 hours
Experimental: as §7, §8, §9, §10

H69AR lung cancer cells = assay: Anti-cancer activity, WST-8 cell viability, H69AR; assay type: cell-based; conditions: Homo sapiens
Experimental: as §1, §2

[5] = cell death at 18 hours, WST-8, n.a. = no activity, read-out: DMS-135 lung EC50
[6] = DU-145, cell death at 18 hours, WST-8, n.a. = no activity, read-out: DU-145 prostate EC50
[7] = HCT-15, cell death at 18 hours, WST-8, n.a. = no activity, read-out: HCT-15 colorectal EC50
[8] = 18 h, read-out: DMS-135 lung EC50 (μM)
[9] = 18 h, read-out: H69AR lung EC50 (μM)
[10] = DU-145, 18 h, read-out: DU-145 prostate EC50 (μM)

human CB1 receptor, sequence (P21554 whole entry): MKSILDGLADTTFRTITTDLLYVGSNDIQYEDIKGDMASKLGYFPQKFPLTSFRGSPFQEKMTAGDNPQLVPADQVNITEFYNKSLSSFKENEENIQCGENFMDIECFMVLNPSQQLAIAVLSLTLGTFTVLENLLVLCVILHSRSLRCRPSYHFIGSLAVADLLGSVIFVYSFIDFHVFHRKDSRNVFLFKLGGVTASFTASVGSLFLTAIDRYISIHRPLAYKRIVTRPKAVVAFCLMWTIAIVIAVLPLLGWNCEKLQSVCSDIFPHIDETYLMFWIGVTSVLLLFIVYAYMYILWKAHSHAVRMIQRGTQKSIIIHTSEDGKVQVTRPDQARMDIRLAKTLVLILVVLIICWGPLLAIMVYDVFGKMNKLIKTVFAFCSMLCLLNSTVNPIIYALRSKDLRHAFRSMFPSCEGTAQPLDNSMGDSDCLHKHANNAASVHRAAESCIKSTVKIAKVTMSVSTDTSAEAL

COc1cc(C(O)c2ccccc2)cc(OC)c1-c1cc(Cl)cc(Cl)c1 (stereo not drawn) [Compound 15]
EC50 [1]: 11600 nM | Ki (human CB1 receptor): > 1000 nM | inhibition at 0.1 µM (NF-κB; 100 nM compound, A549, 10 ng/mL TNF-α, 18 hours): 30% | EC50 [2, 5]: 6.2 µM | EC50 [3, 6]: 18.4 µM | IL-6 Reduction (IL-6; 100 nM compound): 55% | EC50 [4, 7]: 348 µM | Ki (human CB2 receptor): 1.66 nM | CB1/CB2 (human CB2 receptor): 602

COc1cc(C(O)c2cccs2)cc(OC)c1-c1cc(Cl)cc(Cl)c1 (stereo not drawn) [Compound 16, (3′,5′-dichloro-2,6-dimethoxybiphenyl-4-yl)(thiophen-2-yl)methanol]
Ki (human CB1 receptor): > 1000 nM | inhibition at 4 µM (NF-κB; 4 μM compound, A549, 10 ng/mL TNF-α, 18 hours): 45% | IL-6 Reduction (IL-6; 4 μM compound): 90% | CXCL-8 Reduction (CXCL-8; 4 μM compound): 80% | Ki (human CB2 receptor): 0.27 nM | CB1/CB2 (human CB2 receptor): 3700

Cc1cccc(-c2ccc(C(=O)c3ccccc3)cc2O)c1 [Compound 25, (2-hydroxy-3′-methylbiphenyl-4-yl)(phenyl)methanone]
Ki (human CB1 receptor): > 1000 nM | inhibition at 0.01 µM (NF-κB; A549, 10 ng/mL TNF-α, 18 hours): 15% | Ki (human CB2 receptor): 454 nM | CB1/CB2 (human CB2 receptor): 2.21

O=C(c1ccccc1)c1cc(O)c(-c2cc(Cl)cc(Cl)c2)c(O)c1 [Compound 28, (3′,5′-dichloro-2,6-dihydroxybiphenyl-4-yl)(phenyl)methanone]
EC50 [1]: 4000 nM | Ki (human CB1 receptor): 27 nM | inhibition at 1 µM (NF-κB; 1 μM compound, A549, 10 ng/mL TNF-α, 18 hours): 35% | EC50 [2, 5]: 11.8 µM | EC50 (H69AR lung cancer cells; cell death at 18 hours, WST-8, n.a. = no activity, read-out: H69AR lung EC50): 2.4 µM | EC50 [3, 6]: 5.4 µM | IL-6 Reduction (IL-6; 1 μM compound): 15% | CXCL-8 Reduction (CXCL-8; 1 μM compound): 5% | EC50 [4, 7]: 0.8 µM | Ki (human CB2 receptor): 2.94 nM | CB1/CB2 (human CB2 receptor): 9.18

COc1cc(C(=O)c2cccs2)cc(O)c1-c1cc(Cl)cc(Cl)c1 [Compound 30, (3′,5′-dichloro-2-hydroxy-6-methoxybiphenyl-4-yl)(thiophen-2-yl)methanone]
Ki (human CB1 receptor): 503 nM | inhibition at 1 µM (NF-κB; A549, 18 h): 40% | IL-6 Reduction (IL-6; 1 μM compound): 45% | Ki (human CB2 receptor): 2.32 nM | CB1/CB2 (human CB2 receptor): 217

O=C(c1cc(O)c(-c2cc(Cl)cc(Cl)c2)c(O)c1)c1cccs1 [Compound 31, (3′,5′-dichloro-2,6-dihydroxybiphenyl-4-yl)(thiophen-2-yl)methanone]
Ki (human CB1 receptor): > 1000 nM | inhibition at 0.01 µM (NF-κB; A549, 10 ng/mL TNF-α, 18 hours): 55% | IL-6 Reduction (IL-6; 10 nM compound): 35% | Ki (human CB2 receptor): 1.75 nM | CB1/CB2 (human CB2 receptor): 571

Cc1cccc(-c2ccc(C(C)(C)c3ccccc3)cc2O)c1 [Compound 39, 3′-methyl-4-(2-phenylpropan-2-yl)biphenyl-2-ol]
CB1/CB2 (human CB2 receptor): 8.87

Cc1cccc(-c2c(O)cc(C(C)(C)c3ccccc3)cc2O)c1 [Compound 40, 3′-Methyl-4-(1-methyl-1-phenyl-ethyl)-biphenyl-2,6-diol]
CB1/CB2 (human CB2 receptor): 20.30

CC(C)(c1ccccc1)c1cc(O)c(-c2cc(Cl)cc(Cl)c2)c(O)c1 [Compound 41, 3′,5′-dichloro-4-(2-phenylpropan-2-yl)biphenyl-2,6-diol]
EC50 [2, 8]: 1.5 µM | EC50 (H69AR lung cancer cells; [9]): 1.8 µM | EC50 [3, 10]: 1.4 µM | CB1/CB2 (human CB2 receptor): 87.5

CC(C)(c1ccccc1)c1ccc(-c2cc(Cl)cc(Cl)c2)c(O)c1 [Compound 42, 3′,5′-dichloro-4-(2-phenylpropan-2-yl)biphenyl-2-ol]
CB1/CB2 (human CB2 receptor): 142.1

Cc1cccc(-c2c(O)cc(C(C)(C)c3cccs3)cc2O)c1 [Compound 43, 3′-methyl-4-(2-(thiophen-2-yl)propan-2-yl)biphenyl-2,6-diol]
CB1/CB2 (human CB2 receptor): 0.05

CC(C)(c1cc(O)c(-c2cc(Cl)cc(Cl)c2)c(O)c1)c1cccs1 [Compound 44, 3′,5′-dichloro-4-(2-(thiophen-2-yl)propan-2-yl)biphenyl-2,6-diol]
CB1/CB2 (human CB2 receptor): 0.41

CC(C)(c1ccc(-c2cc(Cl)cc(Cl)c2)c(O)c1)c1cccs1 [Compound 45, 3′,5′-dichloro-4-(2-(thiophen-2-yl)propan-2-yl)biphenyl-2-ol]
CB1/CB2 (human CB2 receptor): 0.46

COc1cc(C(C)(C)c2ccccc2)cc(O)c1-c1cc(Cl)cc(Cl)c1 [Compound 47]
EC50 [2, 8]: 0.9 µM | EC50 (H69AR lung cancer cells; [9]): 12.2 µM | EC50 [3, 10]: 1.4 µM | EC50 ([4]; HCT-15, 18 h, read-out: HCT-15 colorectal EC50 (μM)): 4.2 µM
